Data as given in US10544134B2, “4-substituted coumarin derivatives and preparation methods and uses thereof” (SI CHUAN UNIVERSITY, priority 2015, dated 2020).
Read-outs that look alike come from different tables or passages of the source.

How the values were obtained:
Test in all cases: Tumor cell proliferation inhibitory activity test in vitro (MTT)
[1] = tested on: colon carcinoma cell HCT116; type: cell-based, human; conditions: read-out: IC50 of compounds for tumor cells, Activity, HCT116
Source text: (§1) Human non-small cell lung cancer cell line NCI-H460, human small cell lung cancer cell line NCI-H446, human hepatocellular carcinoma cell strain HepG2, human colon carcinoma cell strain HCT116, human prostate cancer PC-3, human melanoma A375, colon carcinoma cell HCT-8, breast cancer cell MCF-7, ovarian cancer cell A2780s, drug-resistant ovarian cancer cell A2780/T, drug-resistant colon cancer cell HCT-8/T and doxorubicin-resistant breast cancer cell MCF-7/ADR are obtained from American Type Culture Collection (ATCC) and are cultured and preserved by the cell bank of State Key Laboratory of Biotherapy of Sichuan University. Above tumor cells are routinely cultured in DMEM culture medium containing 10% fetal bovine serum, 100 U·mL-1 penicillin and 100 mg·L−1 streptomycin, and in an incubator at 37° C. and with saturated humidity and 5% CO2 concentration.
(§2) Fill diluted cell suspension in the 96-well plate with 1000-10000 cells per well and incubate it in CO2 incubator overnight.
(§3) Replace with new medium containing various concentrations of compounds to be tested for the test group and replace with fresh medium with equal volume for the control group, each group is arranged with 5 parallel wells and incubated in an incubator at 37° C. and with 5% CO2 concentration.
(§4) Discard the supernatant after 72 hours, add 200 μL freshly prepared serum-free medium containing 0.2 mg/mL MTT into each well, continue to incubate at 37° C. for 1-4 hours, then stop incubation, carefully remove the culture supernatant in the wells and add 200 uL DMSO (dimethyl sulfoxide), oscillate with a miniature ultrasonic oscillator for 15-20 minutes to make the crystal fully dissolved and mixed. Determine OD values using a microplate reader at 570 nm with a reference wavelength of 450 nm.
(§5) Draw curves based on the growth inhibition rate for tumor cells of the same sample with different concentrations to get dose-response curve, so as to calculate IC50. Repeat each test for 3 times, measure IC50 (μM) or nanomolor concentration (nM) of compounds in different tumor cells.

[2] = tested on: non-small cell lung cancer cell line NCI-H460; type: cell-based, human; conditions: read-out: IC50 of compounds for tumor cells, Activity, H460
Source text: as §1, §2, §3, §4, §5

prostate cancer PC-3 = type: cell-based, human; conditions: 72 hours, read-out: IC50 of compounds for tumor cells, Activity, PC-3
Source text: as §1, §2, §3, §4, §5

[3] = tested on: hepatocellular carcinoma cell HEPG2; type: cell-based, human; conditions: read-out: IC50 of compounds for tumor cells, Activity, HEPG2
Source text: as §1, §2, §3, §4, §5

melanoma A375 = type: cell-based, human; conditions: read-out: IC50 of compounds for tumor cells, Activity, A375
Source text: as §1, §2, §3, §4, §5

breast cancer cell MCF-7 = type: cell-based; conditions: read-out: IC50 of compounds for tumor cells, Activity, MCF-7
Source text: as §1, §2, §3, §4, §5

[4] = Homo sapiens, HCT-116, 72 hours
[5] = Homo sapiens, NCI-H460, 72 hours

Molecule	IC50 ([1]; 72 hours) [µM]	IC50 ([2]; 72 hours) [µM]	IC50 (prostate cancer PC-3) [µM]	IC50 ([3]; 72 hours) [µM]	IC50 (melanoma A375; 72 hours) [µM]	IC50 (breast cancer cell MCF-7; 72 hours) [µM]	IC50 [1, 4] [µM]	IC50 [2, 5] [µM]	IC50 (prostate cancer PC-3; Homo sapiens) [µM]	IC50 ([3]; Homo sapiens, HepG2, 72 hours) [µM]	IC50 (melanoma A375; Homo sapiens, A-375, 72 hours) [µM]	IC50 (breast cancer cell MCF-7; Homo sapiens, MCF7, 72 hours) [µM]
4-(N-methyl-N-(4-methoxy-3-(2-methylphenyl-methoxycarbonyl)-benzene)-amino) Coumarin [COUM-63]	0.1 to 5	0.1 to 5	0.1 to 5	0.1 to 5	0.1 to 5	0.1 to 5						
CCOc1cc(N(C)c2cc(=O)oc3ccccc23)ccc1OC [COUM-58, 4-(N-methyl-N-(4-methoxy-3-ethoxy-benzene)-amino) Coumarin]	> 5	> 5	> 5	> 5	> 5	> 5						
COc1ccc(-c2ccc(-c3cc(=O)oc4ccccc34)o2)cc1 [COUM-15, 4-(5-(4-methoxyphenyl)furan-2-yl)-coumarin]							> 5	> 5	> 5	> 5	> 5	> 5
4-(N-methyl-N-(4-methoxy-3-(furan-2-yl-methoxycarbonyl)-benzene)-amino) Coumarin [COUM-61]	0.1 to 5	0.1 to 5	0.1 to 5	0.1 to 5	0.1 to 5	0.1 to 5						
COc1ccc2c(-c3ccc(-c4ccc(Cl)cc4)o3)cc(=O)oc2c1 [COUM-28, 4-(5-(4-chlorobenzene)furan-2-yl)-7-methoxyl-coumarin]							> 5	> 5	> 5	> 5	> 5	> 5
O=c1cc(-c2ccc(-c3ccccc3Cl)s2)c2ccccc2o1 [COUM-30, 4-(5-(2-chlorobenzene)thiophene-2-yl)-coumarin]							> 5	> 5	> 5	> 5	> 5	> 5
O=c1cc(-c2ccc(-c3ccccc3)o2)c2ccccc2o1 [COUM-19, 4-(5-phenylfuran-2-yl)-coumarin]							> 5	> 5	> 5	> 5	> 5	> 5
O=c1cc(-c2ccc(-c3cccc(Cl)c3)o2)c2ccccc2o1 [COUM-22, 4-(5-(3-chlorobenzene)furan-2-yl)-coumarin]							> 5	> 5	> 5	> 5	> 5	> 5
COc1ccc2c(c1)CN(c1cc(=O)oc3cc(OC)ccc13)CCC2 [COUM-39, 4-(8-methoxy-1,3,4,5-tetrahydro-2H-benzoazepine-2-yl)-7-methoxycoumarin]							0.1 to 5	0.1 to 5	0.1 to 5	0.1 to 5	0.1 to 5	0.1 to 5
COC(=O)CCCCCCCCCCOc1cc(N(C)c2cc(=O)oc3ccccc23)ccc1OC [COUM-94, 4-(N-methyl-N-(4-methoxy-3-(1-methyl ester-decane-oxy)phenyl)-amino) Coumarin]							> 5	> 5	> 5	> 5	> 5	> 5
COc1ccc2c(-c3ccc(-c4ccc5c(c4)OCO5)o3)cc(=O)oc2c1 [COUM-25, 4-(5-(3,4-(methylenedioxy)benzene)furan-2-yl)-7-methoxyl-coumarin]							> 5	> 5	> 5	> 5	> 5	> 5
CCOC(=O)c1cccc(-c2ccc(-c3cc(=O)oc4cc(OC)ccc34)o2)c1 [COUM-27, 4-(5-(3-ethoxycarbonylbenzene)furan-2-yl)-7-methoxyl-coumarin]							> 5	> 5	> 5	> 5	> 5	> 5
COc1ccc2c(-c3ccc(-c4cccc(Cl)c4)s3)cc(=O)oc2c1 [COUM-35, 4-(5-(3-chlorobenzene)thiophene-2-yl)-7-methoxyl-coumarin]							> 5	> 5	> 5	> 5	> 5	> 5
COc1ccc2c(c1)CN(c1cc(=O)oc3ccccc13)CCC2 [COUM-37, 4-(8-methoxy-1,3,4,5-tetrahydro-2H-benzoazepine-2-yl) Coumarin]							0.1 to 5	0.1 to 5	0.1 to 5	0.1 to 5	0.1 to 5	0.1 to 5
COc1ccc2c(-c3ccc(-c4cc(OC)c(OC)c(OC)c4)o3)cc(=O)oc2c1 [COUM-23, 4-(5-(3,4,5-trimethoxybenzene)furan-2-yl)-7-methoxyl-coumarin]							> 5	> 5	> 5	> 5	> 5	> 5
O=c1cc(-c2ccc(-c3ccc(Cl)cc3)o2)c2ccccc2o1 [COUM-21, 4-(5-(4-chlorobenzene)furan-2-yl)-coumarin]							> 5	> 5	> 5	> 5	> 5	> 5
CCN(CC)c1ccc2c(N(C)c3ccc(OC)cc3)cc(=O)oc2c1 [COUM-41, 4-(N-methyl-N-(4-methoxybenzene)-amino)-7-diethylaminocoumarin]							0.01 to 0.1	0.01 to 0.1	0.01 to 0.1	0.01 to 0.1	0.01 to 0.1	0.01 to 0.1
CCOC(=O)c1cccc(-c2ccc(-c3cc(=O)oc4cc(OC)ccc34)s2)c1 [COUM-13, 4-(5-(3-ethoxycarbonylbenzene)thiophene-2-yl)-7-methoxyl-coumarin]							> 5	> 5	> 5	> 5	> 5	> 5
COc1ccc(N(C)c2cc(=O)oc3ccccc23)cc1NC(=O)C1CCCC1 [COUM-97, 4-(N-methyl-N-(4-methoxy-3-(cyclopentylcarbonylamino)phenyl)-amino) Coumarin]							0.1 to 5	0.1 to 5	0.1 to 5	0.1 to 5	0.1 to 5	0.1 to 5
COc1ccc(N(C)c2cc(=O)oc3ccccc23)cc1OCCN1CCSCC1 [COUM-50, 4-(N-methyl-N-(4-methoxy-3-(2-thiomorpholinoethoxy)-benzene)-amino) Coumarin]	0.01 to 0.1	0.01 to 0.1	0.01 to 0.1	0.01 to 0.1	0.01 to 0.1	0.01 to 0.1						
O=c1cc(-c2ccc(-c3ccc4c(c3)OCO4)s2)c2ccccc2o1 [COUM-31, 4-(5-(3,4-(methylenedioxy)benzene)thiophene-2-yl)-coumarin]							> 5	> 5	> 5	> 5	> 5	> 5
CCOC(=O)c1cccc(-c2ccc(-c3cc(=O)oc4ccccc34)s2)c1 [COUM-32]							> 5	> 5	> 5	> 5	> 5	> 5
4-(N-methyl-N-(4-methoxy-3-(4-fluorobenzene) methanesulfonate-benzene)-amino) Coumarin [COUM-56]	0.1 to 5	0.1 to 5	0.1 to 5	0.1 to 5	0.1 to 5	0.1 to 5						
